Experimental data from US5391540A, “Substituted pyridine compounds” (Rohm and Haas Company, priority 1993, dated 1995).
Values joined by “and” are separate entries in the source; they are usually repeats but may differ in a detail not shown here. Equal entries are not always repeated.

Assays:
Type in all cases: in vivo
[1] = tested on: Rape; experiment: plant injury after spraying emerged plants (Table D); set-up: scale not given here
Text: (§1) Topsoil (silt loam) is sieved through a screen having 1.27 cm openings. In some of the tests the soil was mixed with fertilizer (1225 g/cu. m of 12/5/9 containing isobutylidene diurea), while in other tests the fertilizer was omitted. This mixture is steam sterilized and then placed in aluminum pans 6.985 cm deep having ten holes in the bottom each 0.635 cm in diameter. The soil mixture is compacted to a depth of 1.27 cm. from the top of the pan. A predetermined number of seeds of each of several dicotyledonous and monocotyledonous annual plant species and/or vegetative propagules for the perennial plant species are placed on the soil and pressed into the soil surface. The seeds and/or vegetative propagules are covered with 1.27 cm of a mixture of 50% topsoil and 50% of a mixture of Canadian sphagnum peat moss, vermiculite and a wetting agent. The pans are then placed on a capillary mat on a greenhouse bench and subirrigated as needed. After the plants reach the desired stage (9 to 14 days, 1 to 3 true leaf stage), each pan (except the control pans) is removed to a spraying chamber and sprayed by means of an atomizer, operating at a spray pressure of 170.3 kPa ([…]) at the application rates noted in Table D. In the spray solution is an amount of an emulsifying agent mixture (35% butylamine salt of dodecylbenzenesulfonic acid and 65% tall oil condensed with ethylene oxide in the ratio of 11 mols of ethylene oxide/mol of tall oil) to give a spray solution or suspension. The spray solution or suspension contains a sufficient amount of the candidate chemical in order to give application rates of the active ingredient corresponding to those shown in Table D below while applying a total amount of solution or suspension equivalent to 1870 L/Ha (200 gallons/acre). The pans are returned to the greenhouse and watered as before and the injury to the plants as compared to the control pans is observed at approximately 10-14 days (usually 11 days).
(§2) In the following Table D the legends used to identify the plant species are the same as those used in the preceding Table B.

[2] = tested on: Jiwe; experiment: as above; set-up: scale not given here
Text: as §1, §2

[3] = tested on: Cotz; experiment: as above; set-up: scale not given here
Text: as §1, §2

[4] = tested on: Yellow Nutsedge; experiment: Pre-emergent herbicidal activity (Table A); settings: Cyperus, pre-emergence, Yens, 11.2 kg/ha, 10-14 days, read-out: herbicidal rating (% inhibition)
Summary of the method: (§3)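 Seeds or vegetative propagules were set on topsoil compacted to 0.95 to 1.27 cm below the pan rim, then covered with soil thoroughly mixed with a known amount of test compound in acetone or water carrier. Ratings follow a scale of percent inhibition per species.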

[5] = tested on: Velvetleaf; experiment: Pre-emergent herbicidal activity (Table A); settings: Abutilon theophrasti, pre-emergence, Vele, 11.2 kg/ha, 10-14 days, read-out: herbicidal rating (% inhibition)
Summary of the method: as §3

[6] = tested on: Hese; experiment: plant injury after spraying emerged plants (Table D); set-up: scale not given here
Summary of the method: (§4)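 Seeds or perennial propagules were pressed onto steam-sterilized sieved silt loam topsoil and covered with 1.27 cm of a 50:50 topsoil and peat moss/vermiculite/wetting agent mix. Pans were kept on a greenhouse bench over capillary mat and subirrigated as needed.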

[7] = tested on: Vele; experiment: as above; set-up: scale not given here
Summary of the method: as §4

[8] = tested on: Annual Bluegrass; experiment: Pre-emergent herbicidal activity (Table A); settings: pre-emergence, Anbg, 11.2 kg/ha, 10-14 days, read-out: herbicidal rating (% inhibition)
Summary of the method: (§5)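 Seeds were sown on compacted topsoil and covered with soil into which test compound (in acetone or water carrier) had been mixed at 11.2 kg/ha. Pans were kept watered on a greenhouse bench, and percent inhibition was scored as a rating about 10-14 days (usually 11) after treatment.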

[9] = tested on: Wild Buckwheat; experiment: Pre-emergent herbicidal activity (Table A); settings: Fallopia convolvulus, pre-emergence, Wibw, 11.2 kg/ha, 10-14 days, read-out: herbicidal rating (% inhibition)
Summary of the method: as §5

[10] = tested on: Seedling Johnsongrass; experiment: Pre-emergent herbicidal activity (Table A); settings: Sorghum halepense, pre-emergence, Sejg, 11.2 kg/ha, 10-14 days, read-out: herbicidal rating (% inhibition)
Summary of the method: as §5

[11] = tested on: Indian Mustard; experiment: Pre-emergent herbicidal activity (Table A); settings: Brassica juncea, pre-emergence, Inmu, 11.2 kg/ha, 10-14 days, read-out: herbicidal rating (% inhibition)
Summary of the method: as §5

Compound | plant injury rating, Rape ([1]; 0.0701 kg/ha) | plant injury rating, Jiwe ([2]; 0.0701 kg/ha) | plant injury rating, Jiwe ([2]; 0.2803 kg/ha) | plant injury rating, Jiwe ([2]; 1.1210 kg/ha) | plant injury rating, Cotz ([3]; 0.0701 kg/ha) | inhibition at 11200 g/ha [4] | inhibition at 11200 g/ha [5] | plant injury rating, Hese ([6]; 0.0701 kg/ha) | plant injury rating, Hese ([6]; 0.2803 kg/ha) | plant injury rating, Hese ([6]; 1.1210 kg/ha) | plant injury rating, Vele ([7]; 0.0701 kg/ha) | plant injury rating, Vele ([7]; 0.2803 kg/ha) | plant injury rating, Vele ([7]; 1.1210 kg/ha) | plant injury rating, Rape ([1]; 1.1210 kg/ha) | plant injury rating, Cotz ([3]; 0.2803 kg/ha) | plant injury rating, Rape ([1]; 0.2803 kg/ha) | plant injury rating, Rape ([1]; 5.6050 kg/ha) | plant injury rating, Cotz ([3]; 5.6050 kg/ha) | plant injury rating, Hese ([6]; 5.6050 kg/ha) | plant injury rating, Vele ([7]; 5.6050 kg/ha) | other results
COC(=O)c1c(O)nc(C(F)(F)F)c(C(=O)OC)c1CC(C)C [Compound 1, 3,5-pyridinedicarboxylic acid, 2-hydroxy-4-(2-methylpropyl)-6-(trifluoromethyl)-, dimethyl ester] | 1 | 0 | 2 and 1 | 2 | 0 | 0 to 24% | 0 to 24% | 1 | 2 | 2 | 1 | 2 | 2 | – | – | – | – | – | – | – | plant injury rating, Jiwe ([2]; 5.3808 kg/ha): 4 and 3
COC(=O)c1c(OC)nc(C(F)(F)F)c(C2=NCCS2)c1CC(C)C [Compound 50, 3-pyridinecarboxylic acid, 5-(4,5-dihydro-2-thiazolyl)-2-methoxy-4-(2-methylpropyl)-6-(trifluoromethyl)-, methyl ester] | – | 2 | 2 | 2 and 3 | 1 | 75 to 100% | 75 to 100% | 2 | – | – | 2 | – | – | 3 | 2 | – | – | – | – | – | plant injury rating, Rape ([1]; 5.3808 kg/ha): 3; plant injury rating, Jiwe ([2]; 5.3808 kg/ha): 3; plant injury rating, Cotz ([3]; 5.3808 kg/ha): 3; plant injury rating, Hese ([6]; 5.3808 kg/ha): 3; plant injury rating, Vele ([7]; 5.3808 kg/ha): 3
COC(=O)c1c(OC)nc(C(F)(F)F)c(C2SCCS2)c1CC(C)C [Compound 93, 3-pyridinecarboxylic acid, 5-(1,3-dithiolan-2-yl)-2-methoxy-4-(2-methylpropyl)-6-(trifluoromethyl)-, methyl ester] | 0 | 2 | 2 | 3 | 0 | 0 to 24% | 75 to 100% | 1 | 3 | 3 | 0 | 0 | 2 | 3 | 0 | 2 | 3 | 2 | 3 | 3 | plant injury rating, Jiwe ([2]; 5.6050 kg/ha): 3; plant injury rating, Cotz ([3]; 1.1210 kg/ha): 0; inhibition at 11200 g/ha [8]: 75 to 100%; inhibition at 11200 g/ha [9]: 75 to 100%; inhibition at 11200 g/ha [10]: 75 to 100%; inhibition at 11200 g/ha [11]: 75 to 100%
COC(=O)c1c(OC)nc(C(F)(F)F)c(C(=O)NCCCBr)c1CC(C)C [Compound 97, 3-pyridinecarboxylic acid, 5-[[(3-bromopropyl)amino)carbonyl]-2-methoxy-4-(2-methylpropyl)-6-(trifluoromethyl)-, methyl ester] | 0 | 0 | 0 | 0 | 0 | 0 to 24% | 50 to 74% | 0 | 0 | 0 | 0 | 0 | 0 | 0 | 0 | 0 | 0 | 0 | 0 | 0 | plant injury rating, Jiwe ([2]; 5.6050 kg/ha): 1; plant injury rating, Cotz ([3]; 1.1210 kg/ha): 0; inhibition at 11200 g/ha [8]: 75 to 100%; inhibition at 11200 g/ha [9]: 50 to 74%; inhibition at 11200 g/ha [10]: 75 to 100%; inhibition at 11200 g/ha [11]: 75 to 100%
COC(=O)c1c(OC)nc(C(F)(F)F)c(C2=NCCCS2)c1CC(C)C [Compound 98, 3-pyridinecarboxylic acid, 5-(5,6-dihydro-4H-1,3-thiazin-2-yl)-2-methoxy-4-(2-methylpropyl)-6-(trifluoromethyl)-, methyl ester] | 0 | 2 | 2 | 3 | 0 | 0 to 24% | 75 to 100% | 1 | 2 | 2 | 1 | 2 | 2 | 1 | 0 | 0 | 3 | 2 | 3 | 3 | plant injury rating, Jiwe ([2]; 5.6050 kg/ha): 3; plant injury rating, Cotz ([3]; 1.1210 kg/ha): 1; inhibition at 11200 g/ha [8]: 75 to 100%; inhibition at 11200 g/ha [9]: 75 to 100%; inhibition at 11200 g/ha [10]: 75 to 100%; inhibition at 11200 g/ha [11]: 75 to 100%
COC(=O)c1c(OC)nc(C(F)(F)F)c(-c2nnc(C)o2)c1CC(C)C [Compound 103, 3-pyridinecarboxylic acid, 2-methoxy-5-(5-methy1-1,3,4-oxadiazo1-2-yl)-4-(2-methylpropyl)-6-(trifluoromethyl)-, methyl ester] | 0 | 0 | 0 | – | 0 | 0 to 24% | 75 to 100% | 0 | 0 | – | 0 | 0 | – | – | 0 | 0 | 3 | 0 | 3 | 2 | plant injury rating, Rape ([1]; 1.1219 kg/ha): 1; plant injury rating, Jiwe ([2]; 1.1219 kg/ha): 2; plant injury rating, Jiwe ([2]; 5.6050 kg/ha): 2; plant injury rating, Cotz ([3]; 1.1219 kg/ha): 0; plant injury rating, Hese ([6]; 1.1219 kg/ha): 1; plant injury rating, Vele ([7]; 1.1219 kg/ha): 0; inhibition at 11200 g/ha [8]: 75 to 100%; inhibition at 11200 g/ha [9]: 75 to 100%; inhibition at 11200 g/ha [10]: 75 to 100%; inhibition at 11200 g/ha [11]: 75 to 100%
COC(=O)c1c(OC)nc(C(F)(F)F)c(C(=O)n2ccc(F)n2)c1C1CCC1 [Compound 140, 3-pyridinecarboxylic acid, 4-cyclobuty1-5-[(3-fluoro-1H-pyrazo1-1-yl)carbonyl]-2-methoxy-6-(trifluoromethyl)-, methyl ester] | – | – | – | – | – | 0 to 24% | 75 to 100% | – | 3 | 3 | – | 3 | 2 | 3 | – | 3 | 3 | 1 | 3 | 2 | plant injury rating, Cotz ([3]; 1.1210 kg/ha): 1; inhibition at 11200 g/ha [8]: 75 to 100%; inhibition at 11200 g/ha [9]: 75 to 100%; inhibition at 11200 g/ha [10]: 75 to 100%; inhibition at 11200 g/ha [11]: 75 to 100%
